Data taken from patent US20120045500A1, “NOVEL DIOXO-IMIDAZOLIDINE DERIVATIVES, WHICH INHIBIT THE ENZYME SOAT-1, AND PHARMACEUTICAL AND COSMETIC COMPOSITIONS CONTAINING THEM” (GALDERMA RESEARCH & DEVELOPMENT, priority 2009, published 2012).

Molecular target: T1, enzyme ACAT-1 (Homo sapiens, UniProt P35610)
T1 construct: endogenous in cells; host or cells: HepG2
T1 sequence (P35610 1-550): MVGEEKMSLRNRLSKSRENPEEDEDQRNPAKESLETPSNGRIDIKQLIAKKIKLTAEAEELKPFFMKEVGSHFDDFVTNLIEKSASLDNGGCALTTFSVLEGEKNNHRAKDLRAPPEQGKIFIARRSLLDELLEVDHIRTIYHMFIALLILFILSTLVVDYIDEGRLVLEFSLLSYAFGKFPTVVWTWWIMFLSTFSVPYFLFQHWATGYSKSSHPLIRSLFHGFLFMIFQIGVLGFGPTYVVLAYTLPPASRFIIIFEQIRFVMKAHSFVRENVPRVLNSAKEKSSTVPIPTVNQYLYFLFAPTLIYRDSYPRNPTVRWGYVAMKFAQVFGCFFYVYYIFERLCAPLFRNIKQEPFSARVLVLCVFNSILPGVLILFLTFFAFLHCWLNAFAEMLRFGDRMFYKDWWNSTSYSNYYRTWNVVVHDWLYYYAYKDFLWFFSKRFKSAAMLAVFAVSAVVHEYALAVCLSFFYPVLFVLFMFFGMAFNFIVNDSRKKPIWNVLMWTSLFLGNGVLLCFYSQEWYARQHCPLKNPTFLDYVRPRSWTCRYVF
Experiment: HepG2 NBD-cholesterol fluorescence test for inhibitory activity towards the enzyme ACAT-1 (SOAT-1)
Type: cell-based
Conditions: not given
Protocol: The compounds (I) according to the invention, and also the pharmaceutically acceptable salts, solvates and/or hydrates thereof, have inhibitory properties on the enzyme SOAT-1. This inhibitory activity on the enzyme SOAT-1 is measured according to a HepG2 primary enzymatic test, as described in Example 15.
The compounds of formula (I) according to the invention were subjected to a test for evaluating their inhibitory activity towards the enzyme ACAT-1, inspired by the following publication: “Identification of ACAT1- and ACAT2-specific inhibitors using a novel, cell based fluorescence assay: individual ACAT uniqueness”, J. Lipid. Res. (2004) vol. 45, pages 378-386.
The principle of this test is based on the use of NBD-cholesterol, a cholesterol analogue whose fluorescence depends on its environment. When this molecule is in a polar environment, it is weakly fluorescent, whereas in a non-polar environment, it is strongly fluorescent. Free NBD-cholesterol becomes inserted in cell membranes and is weakly fluorescent in this polar environment. When NBD-cholesterol is esterified with ACAT, the NBD-cholesterol ester enters non-polar lipid droplets and is then strongly fluorescent.
The method below is applied: HepG2 cells are incubated in the presence of NBD-cholesterol (1 μg/ml) and of the test compound of formula (I) in black transparent-bottomed 96-well plates, at a rate of 30 000 cells per well. After incubation for 6 hours at 37° C. under 5% CO2, the medium is removed by turning upside-down and the cells are washed with twice 100 μl of PBS. After addition of 50 μl of lysis buffer (10 mM NaPO4, 1% Igepal), the plates are shaken for 5 minutes and the fluorescence is read (excitation at 490 nm, emission at 540 nm) on a Fusion machine (Perkin-Elmer).

SMILES	IC50
Cc1ccc(N2C(=O)N(CC(=O)Nc3c(C(C)C)cccc3C(C)C)C(=O)C23CCN(C(=O)c2ccccc2)CC3)cc1 [Compound 3, 2-(8-benzoyl-2,4-dioxo-1-p-tolyl-1,3,8-triazaspiro[4.5]dec-3-yl)-N-(2,6-diisopropylphenyl)acetamide]	86 nM
Cc1ccc(N2C(=O)N(CC(=O)Nc3c(C(C)C)cccc3C(C)C)C(=O)C23CCN(C(=O)OC(C)(C)C)CC3)cc1 [Compound 2, 3-[(2,6-diisopropylphenylcarbamoyl)methyl]-2,4-dioxo-1-p-tolyl-1,3,8-triazaspiro[4.5]decane-8-carboxylic acid tert-butyl ester]	29 nM
Cc1ccc(N2C(=O)N(CC(=O)Nc3c(C(C)C)cccc3C(C)C)C(=O)C23CCN(C)CC3)cc1 [Compound 5, N-(2,6-diisopropylphenyl)-2-(8-methyl-2,4-dioxo-1-p-tolyl-1,3,8-triazaspiro[4.5]dec-3-yl)acetamide]	20 nM
CC(=O)N1CCC2(CC1)C(=O)N(CC(=O)Nc1c(C(C)C)cccc1C(C)C)C(=O)N2c1ccc(C)cc1 [Compound 1, 2-(8-acetyl-2,4-dioxo-1-p-tolyl-1,3,8-triazaspiro[4.5]dec-3-yl)-N-(2,6-diisopropylphenyl)acetamide]	1600 nM
Cc1ccc(N2C(=O)N(CC(=O)Nc3c(C(C)C)cccc3C(C)C)C(=O)C23CCN(Cc2ccccc2)CC3)cc1 [Compound 4, 2-(8-benzyl-2,4-dioxo-1-p-tolyl-1,3,8-triazaspiro[4.5]dec-3-yl)-N-(2,6-diisopropylphenyl)acetamide]	5.8 nM

Same assay, conditions: HepG2 cells, NBD-cholesterol 1 μg/ml, incubation 6 hours at 37° C., fluorescence read (490/540 nm); read-out: IC50

SMILES	IC50
Cc1ccc(N2C(=O)N(CC(=O)Nc3c(C(C)C)cccc3C(C)C)C(=O)C23CCC(F)(F)CC3)cc1 [Compound 8, 2-(8,8-difluoro-2,4-dioxo-1-p-tolyl-1,3-diazaspiro[4.5]dec-3-yl)-N-(2,6-diisopropylphenyl)acetamide]	1.5 nM
Cc1ccc(N2C(=O)N(CC(=O)Nc3c(C(C)C)cccc3C(C)C)C(=O)C23CCSCC3)cc1 [Compound 7, N-(2,6-diisopropylphenyl)-2-(2,4-dioxo-1-p-tolyl-8-thia-1,3-diazaspiro[4.5]dec-3-yl)acetamide]	1.8 nM
Cc1ccc(N2C(=O)N(CC(=O)Nc3c(C(C)C)cccc3C(C)C)C(=O)C23CCOCC3)cc1 [Compound 9, N-(2,6-diisopropylphenyl)-2-(2,4-dioxo-1-p-tolyl-8-oxa-1,3-diazaspiro[4.5]dec-3-yl)acetamide]	0.4 nM
CCc1cccc(CC)c1NC(=O)CN1C(=O)N(c2ccc(C)cc2)C2(CCOCC2)C1=O [Compound 11, N-(2,6-diethylphenyl)-2-(2,4-dioxo-1-p-tolyl-8-oxa-1,3-diazaspiro[4.5]dec-3-yl)acetamide]	9.4 nM
Cc1ccc(N2C(=O)N(CC(=O)Nc3c(C(C)C)cccc3C(C)C)C(=O)C23CCC(O)CC3)cc1 (stereo not drawn) [Compound 6, N-(2,6-Diisopropylphenyl)-2-(8-hydroxy-2,4-dioxo-1-p-tolyl-1,3-diazaspiro[4.5]dec-3-yl)acetamide]	6.4 nM

System: not given
Experiment: not given
Conditions: not given

SMILES	melting point
CC(=O)N1CCC2(CC1)C(=O)N(CC(=O)Nc1c(C(C)C)cccc1C(C)C)C(=O)N2c1ccc(C)cc1 [Compound 1, 2-(8-acetyl-2,4-dioxo-1-p-tolyl-1,3,8-triazaspiro[4.5]dec-3-yl)-N-(2,6-diisopropylphenyl)acetamide]	136 to 138 °C
Cc1ccc(N2C(=O)N(CC(=O)Nc3c(C(C)C)cccc3C(C)C)C(=O)C23CCC(O)CC3)cc1 (stereo not drawn) [Compound 6, N-(2,6-Diisopropylphenyl)-2-(8-hydroxy-2,4-dioxo-1-p-tolyl-1,3-diazaspiro[4.5]dec-3-yl)acetamide]	142 to 144 °C
